Measured values taken from patent US20030131363A1, “Heme-regulated eukaryotic initiation factor 2 alpha kinase knockout mice and methods for use” (Massachusetts Institute of Technology, priority 2001, published 2003).

Key:
HRI +/+ reticulocytes = test: [35S]-methionine incorporation / protein (globin) synthesis in isolated intact reticulocytes, HRI +/+; format: cell-based, mouse
Description: (§1) Mice were injected with phenylhydrazine at 40 mg/kg on days 0, 1 and 3 to induce hemolysis, and the subsequent erythropoiesis and release of reticulocytes into the blood stream. Blood samples were collected by heart puncture on day 7 when the reticulocyte counts were 85-95%. Reticulocytes were washed twice with ice-cold phosphate-buffered saline supplemented with 5 mM glucose. For protein synthesis assays, reticulocytes were resuspended in DMEM (2×10^8 cells/ml) with 1/10 concentration of methionine plus 2% dialyzed fetal bovine serum and preincubated for 30 min at 37_C for recovery. […] Incorporation of the [^35S]-methionine in the globin chains and other proteins was analyzed by 15% SDS-PAGE, and subsequent transfer to nitrocellulose membranes. Protein synthesis in reticulocytes was quantitated by scintillation counting of the nitrocellulose strips containing globin chains. Phosphorylation of HRI and eIF2a in isolated reticulocytes were analyzed by western blot analysis following 7.5% and 12% SDS-PAGE respectively. […]
(§2) HRI−/− mice are viable and fertile without gross morphological abnormalities. […] The IF2Alpha kinase activity of HRI in reticulocyte lysates was determined using in vitro protein kinase assays. The extent of the eIF2a phosphorylation was determined by western-blot analysis using antibody specific to the phosphorylated eIF2a. […]

HRI−/− reticulocytes = test: [35S]-methionine incorporation / protein (globin) synthesis in isolated intact reticulocytes, HRI−/−; format: cell-based, mouse
Description: as §1, §2

Wt mice = test: Survival in phenylhydrazine-induced hemolysis, Wt mice; conditions: Wt mice with iron-deficiency, after two injections, 50 mg/Kg
Description: (§3) States of iron deficiency have been and remain very common in humans. Thus, exposure to situations that render RBCs more fragile may be often concurrent with iron-deficiency, such as in thalassemias, sickle cell disease, malaria and other infections, extreme climatic conditions, ingestion of natural toxins, heavy metals or drugs. […] Both Wt and HRI−/− mice were injected with phenylhydrazine at the dosages as indicated at Days 0, 1 and 3. The mice were observed daily. […] Six mice of each genotype were used for each dosage. […] The standard phenylhydrazine regime employs three injections of phenylhydrazine on days 0, 1 and 3.

HRI−/− mice = test: Survival in phenylhydrazine-induced hemolysis, HRI−/− mice; conditions: iron-deficient HRI−/− mice, after two injections, 50 mg/Kg
Description: as §3

[1] = target: purified rabbit reticulocyte eIF-2 (alpha subunit as substrate), P83268
Sequence of purified rabbit reticulocyte eIF-2 (alpha subunit as substrate), P83268 (P83268 whole entry, looked up, tested part not stated): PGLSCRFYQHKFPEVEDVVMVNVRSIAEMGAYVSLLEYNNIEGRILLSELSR

[2] = target: purified wheat germ eIF-2Alpha
[3] = target: T1, endogenous eIF2 of mouse reticulocyte lysates (alpha subunit as substrate), Q6ZWX6
T1 chain: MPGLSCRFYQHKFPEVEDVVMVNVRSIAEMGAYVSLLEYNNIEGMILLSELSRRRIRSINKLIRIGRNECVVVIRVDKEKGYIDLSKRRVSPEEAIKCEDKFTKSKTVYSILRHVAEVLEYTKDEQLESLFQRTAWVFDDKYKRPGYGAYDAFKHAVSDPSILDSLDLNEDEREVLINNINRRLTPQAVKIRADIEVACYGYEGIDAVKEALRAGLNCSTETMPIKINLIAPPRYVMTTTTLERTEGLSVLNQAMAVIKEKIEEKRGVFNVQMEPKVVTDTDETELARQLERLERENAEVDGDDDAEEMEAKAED

C[C@@H]1C[C@@H]([C@H](O)CC2CC(=O)NC(=O)C2)C(=O)[C@@H](C)C1 [cycloheximide]
Protein synthesis, inhibition (HRI +/+ reticulocytes; Wt reticulocytes, cycloheximide (2 ìM per method)): inhibited equally well | Protein synthesis, inhibition (HRI−/− reticulocytes; cycloheximide (2 ìM per method)): inhibited equally well

NNc1ccccc1 [phenylhydrazine]
Survival (Wt mice): ~100% | Mice died (HRI−/− mice): 90%

hemin
Incorporation of [35S]-methionine into globins (HRI +/+ reticulocytes; +/+ reticulocytes, pre-treatment with 40_M hemin for 30 min prior to [35S]-methionine): 208 % of control | Protein synthesis, effect of addition of hemin (HRI−/− reticulocytes; hemin added): not affected

B1: 90 kDa polypeptide expressed from rabbit HRI cDNA (heme-regulated eIF-2 alpha kinase), in vitro translation product (protein)
chain: MLGGSAGTRGGEAEGDGAGAVGAVAPPPAIDFPAEVSDPKYDESDVPAELQVLKEPLQQPAFPFAVANQLLLVSLLEHLSHVHEPNPLRSRQVFKLLCQTFIKMGLLSSFTCSDEFSSLRLHHNRAITHLMRSARERVRQDPCADNSHIQKIRSREVALEAQTSRYLNEFEELSILGKGGYGRVYKVRNKLDGQYYAIKKILIKGATKTDCMKVLREVKVLAGLQHPNIVGYHTAWIEHVHVHVQADRVPIQLPSLEVLSDQEEDRDQYGVKNDASSSSSIIFAEFSPEKEKSSDECAVESQNNKLVNYTTNLVVRDTGEFESSTERQENGSIVERQLLFGHNSDVEEDFTSAEESSEEDLSALRHTEVQYHLMLHIQMQLCELSLWDWIAERNRRSRECVDESACPYVMVSVATKIFQELVEGVFYIHNMGIVHRDLKPRNIFLHGPDQQVKIGDFGLACADIIQKNAARTSRNGERAPTHTSRVGTCLYASPEQLEGSEYDAKSDMYSVGVILLELFQPFGTEMERAEVLTGVRAGRIPDSLSKRCPAQAKYVQLLTRRNASQRPSALQLLQSELFQNSAHVNLTLQMKIIEQEREIEELKKQLSLLSQARGVRSDRRDGELPA
eIF-2Alpha kinase activity (32P protein kinase assay, SDS-gel electrophoresis) [1]: translational products of HRI 2A and HRI 2B mRNAs have enhanced eIF-2Alpha kinase activity as compared to the control in the absence of added mRNA

B2: purified reticulocyte HRI (protein)
chain: MLGGSAGTRGGEAEGDGAGAVGAVAPPPAIDFPAEVSDPKYDESDVPAELQVLKEPLQQPAFPFAVANQLLLVSLLEHLSHVHEPNPLRSRQVFKLLCQTFIKMGLLSSFTCSDEFSSLRLHHNRAITHLMRSARERVRQDPCADNSHIQKIRSREVALEAQTSRYLNEFEELSILGKGGYGRVYKVRNKLDGQYYAIKKILIKGATKTDCMKVLREVKVLAGLQHPNIVGYHTAWIEHVHVHVQADRVPIQLPSLEVLSDQEEDRDQYGVKNDASSSSSIIFAEFSPEKEKSSDECAVESQNNKLVNYTTNLVVRDTGEFESSTERQENGSIVERQLLFGHNSDVEEDFTSAEESSEEDLSALRHTEVQYHLMLHIQMQLCELSLWDWIAERNRRSRECVDESACPYVMVSVATKIFQELVEGVFYIHNMGIVHRDLKPRNIFLHGPDQQVKIGDFGLACADIIQKNAARTSRNGERAPTHTSRVGTCLYASPEQLEGSEYDAKSDMYSVGVILLELFQPFGTEMERAEVLTGVRAGRIPDSLSKRCPAQAKYVQLLTRRNASQRPSALQLLQSELFQNSAHVNLTLQMKIIEQEREIEELKKQLSLLSQARGVRSDRRDGELPA
phosphorylation of eIF-2Alpha (protein kinase assay) [2]: the purified reticulocyte HRI phosphorylates purified wheat germ eIF-2Alpha very inefficiently

B3: mouse HRI protein (heme-regulated eIF2 alpha kinase) in reticulocyte lysates (protein)
chain: MLGGSSVDGERDTDDDAAGAVAAPPAIDFPAEVSDPKYDESDVPAELQVLKEPLQQPTFPFLVANQLLLVSLLEHLSHVHEPNPLHSKQVFKLLCQTFIKMGLLSSFTCSDEFSSLRLHHNRAITHLMRSAKERVRQDPCQDNSYMQKIRSREIAFEAQTSRYLNEFEELAILGKGGYGRVYKVRNKLDGQHYAIKKILIKSATKTDCMKVLREVKVLAGLQHPNIVGYHTAWIEHVHVVQPQDRVPIQLPSLEVLSEQEGDRDQGGVKDNESSSSIVFAELTPEKEKPFGESEVKNENNNLVSYTANLVVRNSSESESSIELQEDGLTDLSVRPVVRHQLPLGHSSELEGNFTSTDESSEGNLNLLGQTEVRYHLMLHIQMQLCELSLWDWITERNKRSREYVDEAACPYVMASVATKIFQELVEGVFYIHNMGIVHRDLKPRNIFLHGPDQQVKIGDFGLACADIIQNADWTNRNGKGTRTHTSRVGTCLYASPEQLEGSQYDAKSDMYSLGVILLELFQPFGTEMERATVLTGVRTGRIPESLSKRCPVQAKYIQLLTGRNVSQRPSALQLLQSELFQTTGNVNLTLQMKIIEQEKEIEELKKQLSLLSQDRGLKR
in vitro eIF2 Alpha phosphorylation in reticulocyte lysates with endogenous eIF2 as substrate [3]: In vitro eIF2 Alpha phosphorylation occurred in reticulocyte lysates from +/+ mice ... little eIF2 phosphorylation was detected in the reticulocyte lysates of HRI-/- mice
